According to ChEMBL document CHEMBL1201862, “PubChem BioAssay data set” (2004):
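Results reflect a 48-hour exposure of cells in 96-well plates to compound at five concentrations. GI50 = concentration required for 50% inhibition of growth.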 The source made the active and inactive calls. No stated cut-off is given here; in the data, active = GI50 up to about 1.1 µM and inactive = higher.

Experiments:
Assay in all cases: DTP human tumour cell line panel, 48 h
HT-29 = test system: HT-29
KM12 = test system: KM12
LOX IMVI = test system: LOX IMVI
SK-MEL-28 = test system: SK-MEL-28
RPMI-8226 = test system: RPMI-8226
DMS-273 = test system: DMS-273
MCF7 = test system: MCF7
HOP-62 = test system: HOP-62
EKVX = test system: EKVX
UACC-257 = test system: UACC-257
OVCAR-4 = test system: OVCAR-4
DMS-114 = test system: DMS-114
PC-3 = test system: PC-3
SK-OV-3 = test system: SK-OV-3
NCI-H23 = test system: NCI-H23
SK-MEL-5 = test system: SK-MEL-5
UACC-62 = test system: UACC-62
BT-549 = test system: BT-549
OVCAR-3 = test system: OVCAR-3
OVCAR-5 = test system: OVCAR-5
OVCAR-8 = test system: OVCAR-8
RXF 393 = test system: RXF 393
A549 = test system: A549
K562 = test system: K562
NCI-H522 = test system: NCI-H522
SW-620 = test system: SW-620
U-251 = test system: U-251
NCI/ADR-RES = test system: NCI/ADR-RES
XF498 = test system: XF498
SNB-78 = test system: SNB-78
SNB-75 = test system: SNB-75
COLO 205 = test system: COLO 205
TK-10 = test system: TK-10
MDA-N = test system: MDA-N
HL-60 = test system: HL-60
DU-145 = test system: DU-145
LXFL 529 = test system: LXFL 529
HCT-116 = test system: HCT-116
MDA-MB-231 = test system: MDA-MB-231
T47D = test system: T47D
DLD-1 = test system: DLD-1
MDA-MB-435 = test system: MDA-MB-435
MOLT-4 = test system: MOLT-4
SF-539 = test system: SF-539
M19-MEL = test system: M19-MEL
ACHN = test system: ACHN
NCI-H460 = test system: NCI-H460
CAKI-1 = test system: CAKI-1
M14 = test system: M14
Malme-3M = test system: Malme-3M
786-0 = test system: 786-0
HCT-15 = test system: HCT-15
SNB-19 = test system: SNB-19
SF-295 = test system: SF-295
HOP-18 = test system: HOP-18
A498 = test system: A498
NCI-H226 = test system: NCI-H226
HCC 2998 = test system: HCC 2998
KM-20L2 = test system: KM-20L2
HOP-92 = test system: HOP-92
SF-268 = test system: SF-268
UO-31 = test system: UO-31
CCRF-CEM = test system: CCRF-CEM
SK-MEL-2 = test system: SK-MEL-2
SN12C = test system: SN12C
Hs-578T = test system: Hs-578T
IGROV-1 = test system: IGROV-1

## Cc1c(N)nc(C2CC(=O)N2CC(N)C(N)=O)nc1C(=O)NC(C(=O)NC(C)C(O)C(C)C(=O)NC(C(=O)NCCc1nc(-c2nc(C(=O)NCCNCC(C)O)cs2)cs1)C(C)O)C(OC1OC(CO)C(O)C(O)C1OC1OC(CO)C(O)C(OC(N)=O)C1O)c1c[nH]cn1 (configuration not stated)
HT-29
  GI50: 21.3 µM (inactive)
KM12
  GI50: 19.9 µM (inactive)
LOX IMVI
  GI50: 0.184 µM (active)
SK-MEL-28
  GI50: 43.2 µM (inactive)
RPMI-8226
  GI50: 9.02 µM (inactive)
DMS-273
  GI50: 0.129 µM (active)
MCF7
  GI50: 13.8 µM (inactive)
HOP-62
  GI50: 0.0556 µM (active)
EKVX
  GI50: > 41.1 µM (inactive)
UACC-257
  GI50: 0.528 µM (active)
OVCAR-4
  GI50: 7.57 µM (inactive)
DMS-114
  GI50: 0.397 µM (active)
PC-3
  GI50: > 50 µM (inactive)
SK-OV-3
  GI50: 8.41 µM (inactive)
NCI-H23
  GI50: 0.437 µM (active)
SK-MEL-5
  GI50: 0.809 µM (active)
UACC-62
  GI50: 0.441 µM (active)
BT-549
  GI50: > 50 µM (inactive)
OVCAR-3
  GI50: 6.56 µM (inactive)
OVCAR-5
  GI50: 2.67 µM (inactive)
OVCAR-8
  GI50: 3.36 µM (inactive)
RXF 393
  GI50: 0.0344 µM (active)
A549
  GI50: 3.28 µM (inactive)
K562
  GI50: 20.1 µM (inactive)
NCI-H522
  GI50: 0.462 µM (active)
SW-620
  GI50: 13.9 µM (inactive)
U-251
  GI50: 1.83 µM (inactive)
NCI/ADR-RES
  GI50: 31 µM (inactive)
XF498
  GI50: 1.35 µM (inactive)
SNB-78
  GI50: > 89.3 µM (inactive)
SNB-75
  GI50: 0.344 µM (active)
COLO 205
  GI50: 3.08 µM (inactive)
TK-10
  GI50: 37.6 µM (inactive)
MDA-N
  GI50: > 50 µM (inactive)
HL-60
  GI50: 5.75 µM (inactive)
DU-145
  GI50: 7.87 µM (inactive)
LXFL 529
  GI50: > 38 µM (inactive)
HCT-116
  GI50: 0.148 µM (active)
MDA-MB-231
  GI50: > 50 µM (inactive)
T47D
  GI50: > 5 µM (inactive)
DLD-1
  GI50: 32.4 µM (inactive)
MDA-MB-435
  GI50: 3.1 µM (inactive)
MOLT-4
  GI50: 0.701 µM (active)
SF-539
  GI50: < 0.0295 µM (active)
M19-MEL
  GI50: 5.04 µM (inactive)
ACHN
  GI50: < 0.0249 µM (active)
NCI-H460
  GI50: 0.1 µM (active)
CAKI-1
  GI50: < 0.0426 µM (active)
M14
  GI50: 2.26 µM (inactive)
Malme-3M
  GI50: 0.336 µM (active)
786-0
  GI50: 33.2 µM (inactive)
HCT-15
  GI50: 2.73 µM
SNB-19
  GI50: 5.38 µM (inactive)
SF-295
  GI50: 0.167 µM (active)
HOP-18
  GI50: 13.4 µM (inactive)
A498
  GI50: 5.35 µM (inactive)
NCI-H226
  GI50: 0.0223 µM (active)
HCC 2998
  GI50: 21.9 µM (inactive)
KM-20L2
  GI50: 58.6 µM (inactive)
HOP-92
  GI50: 0.295 µM (active)
SF-268
  GI50: 0.5 µM (active)
UO-31
  GI50: 0.813 µM (active)
CCRF-CEM
  GI50: 7.74 µM (inactive)
SK-MEL-2
  GI50: 38.1 µM (inactive)
SN12C
  GI50: 1.45 µM (inactive)
Hs-578T
  GI50: 2.3 µM (inactive)
IGROV-1
  GI50: 37.2 µM (inactive)
